Results as given in patent US20120309739A1, “AKT / PKB INHIBITORS” (ALMAC DISCOVERY LIMITED, priority 2009, published 2012).
Counter-ions that a name gives are not always drawn.

How the values were obtained:
Type in all cases: biochemical
AKT2 = biological target: T1, AKT2 (Homo sapiens, UniProt P31751); assay: AKT Kinase Assay (IMAP fluorescent polarisation) vs AKT2; conditions: activated AKT2, FAM Crosstide substrate
T1 construct: purchased SignalChem
Protocol: (§1) Testing of the compounds was performed using an AKT Kinase Assay:
(§2) Activated AKT isoforms 1, 2 and 3 were assayed utilising a 5′ FAM Crosstide (Seq. GRPRTSSFAEG-OH). The extent of kinase phosphorylation was determined by fluorescent polarisation using IMAP progressive binding reagent, which introduces binding beads which allow the reagent to specifically bind to phosphate residues via covalent co-ordination complex bonds.
(§3) iMAP binding solution stops Crosstide/kinase interaction and specifically binds phosphorylated substrates. The degree of phosphorylation is determined by fluorescent polarisation (excitation 485 nm; emission 528 nm) or the reduction in speed of rotation of the excited substrate.
(§4) The following materials were used in the assay: • a) Activated AKT isoforms (SignalChem.) dissolved in Complete Reaction buffer at a pre-determined concentration selected so that the assay was carried out in the linear range. • b) AKT substrate peptide: FAM Crosstide (R7110) Molecular Devices, diluted in complete reaction buffer. • c) iMAP Progressive Screening Express Kit (R8127) Molecular Devices • d) Complete Reaction Buffer containing 0.1% BSA, 10 mM Tris-HCl, 10 mM MgCl2, 0.05% NaN3 and 0.01% phosphate free BSA, 1 mM DTT • e) Progressive Binding Solution containing 75% Buffer A, 25% Buffer B and low volume Binding Reagent which contains the binding entity for the assay • f) ATP diluted in complete reaction buffer • g) Black polystyrene 384 well assay plates (Nunc). • h) Biotek Synergy 4 Hybrid Plate reader.
(§5) 50 μl of test compound was dissolved in DMSO (Sigma Aldrich) and serially diluted in complete reaction buffer to give a fourteen point half log dose response and plated into 384 well black plates. The compound was incubated at room temperature with activated AKT isoform ([…]) at the pre-determined concentration, for 45 minutes.
(§6) […] of ATP solution mixed with 2.5 μl of AKT substrate peptide (FAM Crosstide (R7110) Molecular Devices) were dispensed into each well and the plate centrifuged at 1000 rpm for 20 seconds to ensure homogenous mixing of reagents. The reaction mix was incubated in the dark for one hour at room temperature.
(§7) The kinase reaction was stopped by the addition of Progressive Binding Solution and the mixture allowed to equilibrate for one hour in the dark, at room temperature.
(§8) The fluorescent polarisation generated in each well was determined using a […] Synergy 4 Hybrid plate reader. In brief, each reaction solution was excited at 485 nm with the emission measured at 528 nm in both the parallel and perpendicular pathway.
(§9) The polarisation value generated in each well was calculated by Gen5 software (Biotek) and the % inhibition of kinase activity compared to vehicle control was calculated via GraphPad Prism. IC50 values for each compound were calculated by non-linear regression analysis using Prism software.
(§10) All plates were internally controlled by two methods. Firstly, by calculating the signal:noise ratio; based on kinase polarisation without inhibitor and polarisation generated by complete reaction buffer in the absence of activated kinase. Secondly by determining IC50 values generated by known inhibitors of the AKT isoforms.

AKT1 = biological target: T2, AKT1 (Homo sapiens, UniProt P31749); assay: AKT Kinase Assay (IMAP fluorescent polarisation) vs AKT1; conditions: activated AKT1, FAM Crosstide substrate
T2 construct: purchased SignalChem
T2 sequence (P31749 whole entry): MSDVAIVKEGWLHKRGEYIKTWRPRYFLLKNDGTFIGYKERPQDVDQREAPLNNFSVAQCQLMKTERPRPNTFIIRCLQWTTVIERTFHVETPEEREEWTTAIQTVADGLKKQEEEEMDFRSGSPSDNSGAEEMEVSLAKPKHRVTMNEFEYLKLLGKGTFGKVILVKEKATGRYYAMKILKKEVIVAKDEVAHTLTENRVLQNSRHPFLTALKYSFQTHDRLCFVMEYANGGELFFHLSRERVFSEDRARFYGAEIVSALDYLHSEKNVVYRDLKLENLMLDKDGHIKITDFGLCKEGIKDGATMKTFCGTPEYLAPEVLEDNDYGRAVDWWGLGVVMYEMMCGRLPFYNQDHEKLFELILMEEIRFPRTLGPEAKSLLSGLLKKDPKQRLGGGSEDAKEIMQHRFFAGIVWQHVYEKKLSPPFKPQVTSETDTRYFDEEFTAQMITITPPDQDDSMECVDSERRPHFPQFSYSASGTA
Protocol: as §1, §2, §3, §4, §5, §6, §7, §8, §9, §10

AKT3 = biological target: T3, AKT3 (Homo sapiens, UniProt Q9Y243); assay: AKT Kinase Assay (IMAP fluorescent polarisation) vs AKT3; conditions: activated AKT3, FAM Crosstide substrate
T3 construct: purchased SignalChem
T3 sequence (Q9Y243 whole entry): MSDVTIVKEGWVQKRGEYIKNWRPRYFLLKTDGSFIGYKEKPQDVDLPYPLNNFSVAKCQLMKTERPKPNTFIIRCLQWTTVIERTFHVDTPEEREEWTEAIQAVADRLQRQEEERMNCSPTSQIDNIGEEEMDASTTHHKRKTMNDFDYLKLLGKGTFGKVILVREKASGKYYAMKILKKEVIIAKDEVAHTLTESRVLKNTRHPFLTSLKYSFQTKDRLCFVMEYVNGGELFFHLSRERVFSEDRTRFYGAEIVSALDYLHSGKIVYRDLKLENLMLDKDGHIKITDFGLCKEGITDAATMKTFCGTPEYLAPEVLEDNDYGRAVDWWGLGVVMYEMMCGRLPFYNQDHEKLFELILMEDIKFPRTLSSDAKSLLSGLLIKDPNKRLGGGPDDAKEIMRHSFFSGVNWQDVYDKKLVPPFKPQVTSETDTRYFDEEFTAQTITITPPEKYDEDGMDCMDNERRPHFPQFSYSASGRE
Protocol: as §1, §2, §3, §4, §5, §6, §7, §8, §9, §10

T1 sequence (P31751 whole entry): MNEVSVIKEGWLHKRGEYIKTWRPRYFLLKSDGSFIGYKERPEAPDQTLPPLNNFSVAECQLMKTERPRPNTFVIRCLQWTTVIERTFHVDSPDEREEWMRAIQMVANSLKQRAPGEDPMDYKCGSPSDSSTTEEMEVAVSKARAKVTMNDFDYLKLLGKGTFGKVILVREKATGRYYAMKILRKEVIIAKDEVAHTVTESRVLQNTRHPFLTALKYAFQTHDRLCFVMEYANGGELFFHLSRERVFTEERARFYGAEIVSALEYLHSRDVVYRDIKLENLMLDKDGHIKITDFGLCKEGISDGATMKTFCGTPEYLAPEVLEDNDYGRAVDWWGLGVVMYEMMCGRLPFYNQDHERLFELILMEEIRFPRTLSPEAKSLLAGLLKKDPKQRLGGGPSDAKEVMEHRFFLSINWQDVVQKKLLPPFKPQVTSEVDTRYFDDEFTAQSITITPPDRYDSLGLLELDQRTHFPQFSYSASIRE

Structure (SMILES)	IC50 (AKT2)	IC50 (AKT1)	IC50 (AKT3)
COc1nc(N2CC[C@H](O)C2)nc2oc(-c3ccc(C4(N)CCC4)cc3)c(-c3ccccc3)c12 [Example 35, (S)-1-(6-(4-(1-Aminocyclobutyl)phenyl)-4-methoxy-5-phenylfuro[2,3-d]pyrimidin-2-yl)pyrrolidin-3-ol]	0.1 to 1 µM	0.1 to 1 µM	1 to 10 µM
COc1nc(NCCO)nc2oc(-c3ccc(C4(N)CCC4)cc3)c(-c3ccccc3)c12 [Example 38, 2-((6-(4-(1-Aminocyclobutyl)phenyl)-4-methoxy-5-phenylfuro[2,3-d]pyrimidin-2-yl)amino)ethanol]	0.1 to 1 µM	≤ 0.1 µM	> 10 µM
COc1nc(N2CCC(N)CC2)nc2oc(-c3ccc(C4(N)CCC4)cc3)c(-c3ccccc3)c12 [Example 39, 1-(6-(4-(1-Aminocyclobutyl)phenyl)-4-methoxy-5-phenylfuro[2,3-d]pyrimidin-2-yl)piperidin-4-amine]	0.1 to 1 µM	0.1 to 1 µM	1 to 10 µM
COc1nc(N2CCC(O)CC2)nc2oc(-c3ccc(C4(N)CCC4)cc3)c(-c3ccccc3)c12 [Example 40, 1-(6-(4-(1-Aminocyclobutyl)phenyl)-4-methoxy-5-phenylfuro[2,3-d]pyrimidin-2-yl)piperidin-4-ol]	0.1 to 1 µM	0.1 to 1 µM	> 10 µM
COc1nc(NCCCO)nc2oc(-c3ccc(C4(N)CCC4)cc3)c(-c3ccccc3)c12 [Example 41, 3-((6-(4-(1-Aminocyclobutyl)phenyl)-4-methoxy-5-phenylfuro[2,3-d]pyrimidin-2-yl)amino)propan-1-ol]	0.1 to 1 µM	≤ 0.1 µM	> 10 µM
COCCNc1nc(OC)c2c(-c3ccccc3)c(-c3ccc(C4(N)CCC4)cc3)oc2n1 [Example 42, 6-(4-(1-Aminocyclobutyl)phenyl)-4-methoxy-N-(2-methoxyethyl)-5-phenylfuro[2,3-d]pyrimidin-2-amine]	0.1 to 1 µM	0.1 to 1 µM	> 10 µM
COc1nc(NCCN)nc2oc(-c3ccc(C4(N)CCC4)cc3)c(-c3ccccc3)c12 [Example 43, N^1-(6-(4-(1-Aminocyclobutyl)phenyl)-4-methoxy-5-phenylfuro[2,3-d]pyrimidin-2-yl)ethane-1,2-diamine]	0.1 to 1 µM	0.1 to 1 µM	1 to 10 µM
COc1nc(-n2ccnc2)nc2oc(-c3ccc(C4(N)CCC4)cc3)c(-c3ccccc3)c12 [Example 44, 1-(4-(2-(1H-Imidazol-1-yl)-4-methoxy-5-phenylfuro[2,3-d]pyrimidin-6-yl)phenyl)cyclobutanamine]	0.1 to 1 µM	≤ 0.1 µM	> 10 µM
COc1nc(N2CCN(C(C)=O)CC2)nc2oc(-c3ccc(C4(N)CCC4)cc3)c(-c3ccccc3)c12 [Example 45, 1-(4-(6-(4-(1-Aminocyclobutyl)phenyl)-4-methoxy-5-phenylfuro[2,3-d]pyrimidin-2-yl)piperazin-1-yl)ethanone]	0.1 to 1 µM	0.1 to 1 µM	1 to 10 µM
CCOc1nc(N2CCNCC2)nc2oc(-c3ccc(C4(N)CCC4)cc3)c(-c3ccccc3)c12 [Example 46, 1-(4-(4-Ethoxy-5-phenyl-2-(piperazin-14)furo[2,3-d]pyrimidin-6-yl)phenyl)cyclobutanamine, HCl]	0.1 to 1 µM	0.1 to 1 µM	0.1 to 1 µM
COc1nc(N2CCCCC2)nc2oc(-c3ccc(C4(N)CCC4)cc3)c(-c3ccccc3)c12 [Example 47, 1-(4-(4-Methoxy-5-phenyl-2-(piperidin-1-yl)furo[2,3-d]pyrimidin-6-yl)phenyl)cyclobutanamine]	1 to 10 µM	1 to 10 µM	> 10 µM
COc1nc(NC(C)=O)nc2oc(-c3ccc(C4(N)CCC4)cc3)c(-c3ccccc3)c12 [Example 48, N-(6-(4-(1-Aminocyclobutyl)phenyl)-4-methoxy-5-phenylfuro[2,3-d]pyrimidin-2-yl)acetamide]	0.1 to 1 µM	≤ 0.1 µM	0.1 to 1 µM
COc1nc(OC)c2c(-c3ccccc3)c(-c3ccc(C4(N)CCC4)cc3)oc2n1 [Example 49, 1-(4-(2,4-Dimethoxy-5-phenylfuro[2,3-d]pyrimidin-6-yl)phenyl)cyclobutanamine]	0.1 to 1 µM	≤ 0.1 µM	> 10 µM
NC1CCN(c2ncc3c(-c4ccccc4)c(-c4ccc(C5(N)CCC5)cc4)oc3n2)CC1 [Example 50, 1-(6-(4-(1-Aminocyclobutyl)phenyl)-5-phenylfuro[2,3-d]pyrimidin-2-yl)piperidin-4-amine]	0.1 to 1 µM	1 to 10 µM	> 10 µM
NC1(c2ccc(-c3oc4nc(NCCO)ncc4c3-c3ccccc3)cc2)CCC1 [Example 51, 2-((6-(4-(1-Aminocyclobutyl)phenyl)-5-phenylfuro[2,3-d]pyrimidin-2-yl)amino)ethanol]	0.1 to 1 µM	0.1 to 1 µM	> 10 µM
NC1(c2ccc(-c3oc4nc(N5CCOCC5)ncc4c3-c3ccccc3)cc2)CCC1 [Example 52, 1-(4-(2-Morpholino-5-phenylfuro[2,3-d]pyrimidin-6-yl)phenyl)cyclobutanamine]	0.1 to 1 µM	1 to 10 µM	> 10 µM
NC1(c2ccc(-c3oc4nc(N5CCNCC5)ncc4c3-c3ccccc3)cc2)CCC1 [Example 53, 1-(4-(5-Phenyl-2-(piperazin-1-yl)furo[2,3-d]pyrimidin-6-yl)phenyl)cyclobutanamine]	0.1 to 1 µM	0.1 to 1 µM	> 10 µM
NC1(c2ccc(-c3oc4nc(OCCO)ncc4c3-c3ccccc3)cc2)CCC1 [Example 54, 2-((6-(4-(1-Aminocyclobutyl)phenyl)-5-phenylfuro[2,3-d]pyrimidin-2-yl)oxy)ethanol]	0.1 to 1 µM	≤ 0.1 µM	> 10 µM
CNc1ncc2c(-c3ccccc3)c(-c3ccc(C4(N)CCC4)cc3)oc2n1 [Example 55, 6-(4-(1-Aminocyclobutyl)phenyl)-N-methyl-5-phenylfuro[2,3-d]pyrimidin-2-amine]	0.1 to 1 µM	≤ 0.1 µM	> 10 µM
Cn1c(N2CC[C@H](O)C2)nc2oc(-c3ccc(C4(N)CCC4)cc3)c(-c3ccccc3)c2c1=O [Example 56, (S)-6-(4-(1-aminocyclobutyl)phenyl)-2-(3-hydroxypyrrolidin-1-yl)-3-methyl-5-phenylfuro[2,3-d]pyrimidin-4(3H)-one]	≤ 0.1 µM	0.1 to 1 µM	1 to 10 µM
Cn1c(N2CC[C@@H](O)C2)nc2oc(-c3ccc(C4(N)CCC4)cc3)c(-c3ccccc3)c2c1=O [Example 57, (R)-6-(4-(1-Aminocyclobutyl)phenyl)-2-(3-hydroxypyrrolidin-1-yl)-3-methyl-5-phenylfuro[2,3-d]pyrimidin-4(3H)-one]	≤ 0.1 µM	0.1 to 1 µM	1 to 10 µM
Cn1c(N2CCCC2)nc2oc(-c3ccc(C4(N)CCC4)cc3)c(-c3ccccc3)c2c1=O [Example 58, 6-(4-(1-Aminocyclobutyl)phenyl)-3-methyl-5-phenyl-2-(pyrrolidin-1-yl)furo[2,3-d]pyrimidin-4(3H)-one hydrochloride]	0.1 to 1 µM	0.1 to 1 µM	1 to 10 µM
Cn1c(N2CCC(O)CC2)nc2oc(-c3ccc(C4(N)CCC4)cc3)c(-c3ccccc3)c2c1=O [Example 59, 6-(4-(1-Aminocyclobutyl)phenyl)-2-(4-hydroxypiperidin-1-yl)-3-methyl-5-phenylfuro[2,3-d]pyrimidin-4(3H)-one hydrochloride]	≤ 0.1 µM	0.1 to 1 µM	1 to 10 µM
CNC(=O)CNc1nc2oc(-c3ccc(C4(N)CCC4)cc3)c(-c3ccccc3)c2c(=O)n1C [Example 60, 2-((6-(4-(1-Aminocyclobutyl)phenyl)-3-methyl-4-oxo-5-phenyl-3,4-dihydrofuro[2,3-d]pyrimidin-2-yl)amino)-N-methylacetamide hydrochloride]	0.1 to 1 µM	1 to 10 µM	> 10 µM
